Measured values published in article PMC8158245, “Novel chalcone/aryl carboximidamide hybrids as potent anti-inflammatory via inhibition of prostaglandin E2 and inducible NO synthase activities: design, synthesis, molecular docking studies and ADMET prediction” (Journal of Enzyme Inhibition and Medicinal Chemistry, 2021).
Values joined by “and” are separate entries in the source; they are usually repeats but may differ in a detail not shown here. Equal values may be shown once. Read-outs that look alike come from different tables or passages of the source.

Assays:
[1] = MTT cytotoxicity assay on RAW 264.7 cells; assay type: cell-based; settings: mouse; for IC50 at 20 h: with LPS; for IC50: without LPS
Procedure: MTT assay was used to assess the cell viability of RAW 264.7 cells cultured in RPMI-1640 complete media. […] Afterwards, 5 µl of MTT solution were added and incubated for further 4 h. Finally, 150 ul of dimethyl sulfoxide (DMSO) were added and the optical density was assessed at 570 nm using an ELISA plate reader.

[2] = test system: LPS-induced NO production in RAW 264.7 cells; experiment: Griess assay for NO release from LPS-stimulated RAW 264.7 cells; assay type: cell-based; settings: Mus musculus, RAW264.7; for IC50: LPS-induced RAW 264.7 cells; for inhibition at 5 µM: compounds at 5 µM, 2 h before LPS, RAW 264.7 cells, read-out: NO Inhibition rates (%) ± SD
Procedure: Equal volumes of Griess reagent and the supernatant, obtained from treated RAW264.7 cells with the compounds 2 h before LPS induction, were mixed for 10 min at room temperature in the dark. The absorbance was measured at 540 nm using ELISA plate reader and the nitrite concentration was calculated from sodium nitrite standard curve. The percentage inhibition (%) is calculated as absorbance at 540 nm of (LPS-compounds)/absorbance at 540 nm of (LPS-control) ×100[47]^,[48].

iNOS [3] = target: T1, iNOS (Mus musculus, UniProt P29477); experiment: iNOS enzymatic activity in LPS-induced RAW 264.7 cells; assay type: cell-based
T1 construct: endogenous in cells; host or cells: RAW 264.7 cells induced with LPS
T1 sequence (P29477 1-1144): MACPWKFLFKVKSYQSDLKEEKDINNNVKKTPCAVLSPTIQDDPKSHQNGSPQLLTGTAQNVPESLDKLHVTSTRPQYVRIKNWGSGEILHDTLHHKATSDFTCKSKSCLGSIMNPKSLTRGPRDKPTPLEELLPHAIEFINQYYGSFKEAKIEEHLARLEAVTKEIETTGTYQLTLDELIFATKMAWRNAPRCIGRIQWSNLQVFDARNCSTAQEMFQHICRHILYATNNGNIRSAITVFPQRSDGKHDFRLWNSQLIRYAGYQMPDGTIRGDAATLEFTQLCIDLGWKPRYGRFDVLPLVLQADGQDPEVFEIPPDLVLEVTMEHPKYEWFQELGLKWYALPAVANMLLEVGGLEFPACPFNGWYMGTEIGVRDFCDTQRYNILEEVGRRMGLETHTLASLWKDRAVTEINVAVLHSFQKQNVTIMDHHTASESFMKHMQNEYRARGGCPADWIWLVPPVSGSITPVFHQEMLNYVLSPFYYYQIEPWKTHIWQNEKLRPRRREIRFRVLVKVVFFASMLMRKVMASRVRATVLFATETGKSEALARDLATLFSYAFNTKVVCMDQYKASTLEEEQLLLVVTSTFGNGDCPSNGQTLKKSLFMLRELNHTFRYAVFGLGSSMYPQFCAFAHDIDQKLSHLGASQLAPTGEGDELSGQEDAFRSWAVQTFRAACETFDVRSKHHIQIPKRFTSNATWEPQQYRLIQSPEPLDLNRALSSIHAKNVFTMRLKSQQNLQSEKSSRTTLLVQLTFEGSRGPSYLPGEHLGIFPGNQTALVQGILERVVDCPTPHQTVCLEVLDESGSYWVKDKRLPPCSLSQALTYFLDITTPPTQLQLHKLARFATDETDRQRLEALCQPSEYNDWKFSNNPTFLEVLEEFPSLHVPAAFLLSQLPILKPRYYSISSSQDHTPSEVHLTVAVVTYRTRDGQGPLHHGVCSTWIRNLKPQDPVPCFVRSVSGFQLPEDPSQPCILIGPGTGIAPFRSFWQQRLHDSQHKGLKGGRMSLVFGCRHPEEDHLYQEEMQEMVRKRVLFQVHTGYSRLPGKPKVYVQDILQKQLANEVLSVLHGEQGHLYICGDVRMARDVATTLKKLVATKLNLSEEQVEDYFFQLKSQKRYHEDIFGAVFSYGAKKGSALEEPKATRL
Procedure: Then, the NOS assay reaction solution (100 µl/well) was added and incubated for an extra 2 h at 37 °C. The fluorescence with excitation wavelength at 485 nm and emission wavelength at 528 nm was measured using a fluorescent microplate reader.

[4] = test system: PGE2 production in RAW 264.7 cells; experiment: PGE2 concentration by ELISA in LPS-treated RAW 264.7 cells; assay type: cell-based; settings: Mus musculus, RAW264.7; LPS-induced RAW 264.7 cells
Procedure: After seeding and incubation of RAW 264.7 cells for 24 h, then the cells were treated with the compounds (4c, 4d, 6a, 6c, 6d and 6e) at different concentrations and with LPS (1 µg/ml) for another 24 h. The concentration of prostaglandin E2 (PGE2) was measured in the culture media using ELISA kit (R&D Systems, Minneapolis, MN)[50].

bovine COX-1 = target: T2, bovine COX-1 (Ovis aries, UniProt P05979); experiment: In vitro COX-1 inhibition assay (Cayman kit); assay type: biochemical
T2 construct: purchased Cayman Chemical 560101
T2 sequence (P05979 25-600): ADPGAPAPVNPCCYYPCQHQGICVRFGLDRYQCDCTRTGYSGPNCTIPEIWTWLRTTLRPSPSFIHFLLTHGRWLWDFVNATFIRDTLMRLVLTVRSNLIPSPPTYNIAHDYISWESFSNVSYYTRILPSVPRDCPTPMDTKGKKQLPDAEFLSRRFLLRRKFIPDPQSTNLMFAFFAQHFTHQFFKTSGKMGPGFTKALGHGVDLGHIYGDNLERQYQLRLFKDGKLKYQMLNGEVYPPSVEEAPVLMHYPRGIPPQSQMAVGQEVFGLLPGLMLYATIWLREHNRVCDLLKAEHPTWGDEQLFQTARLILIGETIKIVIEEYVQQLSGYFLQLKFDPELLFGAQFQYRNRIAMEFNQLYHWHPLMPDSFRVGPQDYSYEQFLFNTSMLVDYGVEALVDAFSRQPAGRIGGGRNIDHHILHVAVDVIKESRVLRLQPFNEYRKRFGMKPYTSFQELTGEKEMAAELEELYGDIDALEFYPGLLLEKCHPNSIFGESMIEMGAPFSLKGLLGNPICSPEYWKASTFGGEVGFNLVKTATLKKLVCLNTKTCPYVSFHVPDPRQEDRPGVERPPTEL

COX-2 [5] = experiment: In vitro COX-2 inhibition assay (Cayman kit); assay type: biochemical, bovine; settings: selectivity index from COX 1 and COX 2 IC50
[6] = test system: carrageenan-induced paw edoema; experiment: Carrageenan-induced rat paw edoema; assay type: in vivo, Wistar albino rats; settings: for % of edoema inhibition (% mean ± SEM), 1 h / % of edoema inhibition (% mean ± SEM), 2 h / % of edoema inhibition (% mean ± SEM), 3 h / % of edoema inhibition (% mean ± SEM), 4 h: rat, 50 mg/kg oral; for % of edoema inhibition (% mean ± SEM), 1 h: 1 h after carrageenan; for % of edoema inhibition (% mean ± SEM), 2 h: 2 h after carrageenan; for % of edoema inhibition (% mean ± SEM), 3 h: 3 h after carrageenan; for % of edoema inhibition (% mean ± SEM), 4 h: 4 h after carrageenan
Procedure: The anti-inflammatory activity of the inspiring active compounds in vitro (4c, 4d, 6a, 6c, 6d and 6e) were further estimated in vivo using the carrageenan-induced paw edoema test. […] The paw thickness was assessed using Vernier calliper after carrageenan injection for 1,2, 3 and 4 h. Wistar albino rats (males weighing 120–140 g, six rats per group) were grouped as follows: Group 1 (Control) rats were received the vehicle. […] The percentage inhibition of edoema thickness was calculated at each time interval in comparison to the control group.

COX-2 [7] = test system: COX-2; set-up: method as in PMID 30878890; settings: cited from earlier work; for IC50: Figure 1
15-LOX = test system: 15-LOX; set-up: method as in PMID 30878890; settings: Figure 1; cited from earlier work
[8] = test system: LPS-induced NO production; settings: cited from earlier work
iNOS [9] = target: T1, iNOS; settings: cited from earlier work
PGE2 = settings: cited from earlier work
[10] = four hours after carrageenan injection

| Compound | IC50 at 20 h [1] [µM] | IC50 [1] [µM] | IC50 [2] [µM] | inhibition at 5 µM [2] [%] | IC50 (iNOS [3]) [µM] | IC50 [4] [µM] | IC50 (bovine COX-1) [µM] | SI (COX-2 [5]) | % of edoema inhibition (% mean ± SEM), 1 h [6] [%] | % of edoema inhibition (% mean ± SEM), 2 h [6] [%] | other results |
| --- | --- | --- | --- | --- | --- | --- | --- | --- | --- | --- | --- |
| COc1ccc(C(=O)/C=C/c2ccc(OCC(=O)O/N=C(\N)c3ccccc3)cc2)cc1 [Compound 6a, N’-(2-{4-[(1E)-3-(4-Methoxyphenyl)-3-oxoprop-1-en-1-yl]phenoxy}acetoxy) benzenecarboximidamide] | > 80 | > 80 | 13.6 | 55.5 ± 2.4 | 6.32 | 0.0481 | 20.9 ± 1.09 | 19 | 14.36 ± 3.11 | 24.33 ± 2.26 | % of edoema inhibition (% mean ± SEM), 3 h ([6]; 50 mg/kg): 45.83% and 45.83 ± 2.74%; % of edoema inhibition (% mean ± SEM), 4 h [6]: 55.74 ± 2.59%; melting point: 172 to 173 °C |
| COc1ccc(C(=O)/C=C/c2ccc(OCC(=O)O/N=C(\N)c3ccc(OC)c(OC)c3)cc2)cc1 [Compound 6d, N’-(2-{4-[(1E)-3-(4-Methoxyphenyl)-3-oxoprop-2-en-1-yl]phenoxy}acetoxy) -3,4-dimethoxybenzenecarboximidamide] | > 80 | > 80 | 4.36 | 78.2 ± 3.4 | 1.91 | 0.0212 | 17.8 ± 0.93 | 0.17 | 13.25 ± 2.04 | 38.43 ± 3.62 | anti-inflammatory activity relative to celecoxib [6, 10]: ~7 fold; anti-inflammatory activity relative to indomethacin [6, 10]: ~1.5 fold; % of edoema inhibition (% mean ± SEM), 3 h ([6]; 50 mg/kg): 65.31% and 65.31 ± 2.64%; % of edoema inhibition (% mean ± SEM), 4 h ([6]; 50 mg/kg): 78.51% and 78.53% and 78.53 ± 3.28% |
| COc1ccc(C(=O)/C=C/c2ccc(OCC(=O)O/N=C(\N)c3ccc([N+](=O)[O-])cc3)cc2)cc1 [Compound 6e, N’-(2-{4-[(1E)-3-(4-Methoxyphenyl)-3-oxoprop-2-en-1-yl]phenoxy}acetoxy)-4-nitrobenzenecarboximidamide] | > 80 | > 80 | 15.8 | 57.9 ± 1.3 | 7.15 | 0.0451 | 12.7 ± 0.66 | 7.43 | 10.23 ± 3.17 | 19.34 ± 2.45 | % of edoema inhibition (% mean ± SEM), 4 h [6]: 33.21 ± 3.15%; melting point: 193 to 194 °C |
| COc1ccc2cc(C(C)C(=O)O/N=C(\N)c3ccc(Cl)cc3)ccc2c1 (centres unmarked) [IV] | – | – | – | – | – | – | – | – | – | – | IC50 (COX-2 [7]): 7.15 nM; IC50 (15-LOX): 1.77 nM |
| COc1ccc2c(c1)c(CC(=O)O/N=C(\N)c1ccc(OC)c(OC)c1)c(C)n2C(=O)c1ccc(Cl)cc1 [VII] | – | – | – | – | – | – | – | – | – | – | IC50 ([8]; Figure 1, read-out: NO IC50): 6.53 µM; IC50 (iNOS [9]; Figure 1, read-out: iNOS IC50): 3.26 µM; IC50 (PGE2): 0.0345 µM |
| COc1ccc2c(c1)c(CC(=O)O/N=C(\N)c1ccccc1)c(C)n2C(=O)c1ccc(Cl)cc1 [VI] | – | – | – | – | – | – | – | – | – | – | IC50 ([8]; as printed in the introduction, read-out: LPS-induced NO production IC50): 10.7 µM; IC50 (iNOS [9]; as printed in the introduction, read-out: iNOS activity IC50): 2.31 µM; IC50 (PGE2): 0.029 µM |
| COc1ccc2cc(C(C)C(=O)O/N=C(\N)c3ccc(OC)c(OC)c3)ccc2c1 (centres unmarked) [V] | – | – | – | – | – | – | – | – | – | – | IC50 (COX-2 [7]): 6.4 nM; COX-2 inhibitory potency relative to celecoxib (COX-2 [7]): approximately 6.6 folds; IC50 (15-LOX): 2.07 nM |
